Measurements published in patent US11845747B2, “Ester and carbonate pyrimidine compounds as JAK kinase inhibitors” (priority 2019, dated 2023).
≈ marks a conversion by molar mass, not a printed value.

Key:
[1] = molecular target: T1, JAK1 (Homo sapiens, UniProt P23458); experiment: Biochemical LanthaScreen JAK1 kinase assay; conditions: Km ATP 25 μM; pKi from pIC50 by Cheng-Prusoff; read-out: JAK 1 (pKi) (converted)
T1 construct: GST; purchased Life Technologies
Method: (§1) Assay 1: Biochemical JAK and Tyk2 Kinase Assays A panel of four LanthaScreen JAK biochemical assays (JAK1, 2, 3 and Tyk2) were carried in a common kinase reaction buffer (50 mM HEPES, pH 7.5, 0.01% Brij-35, 10 mM MgCl2, and 1 mM EGTA). Recombinant GST-tagged JAK enzymes and a GFP-tagged STAT1 peptide substrate were obtained from Life Technologies. Serially or discretely diluted compounds were pre-incubated with each of the four JAK enzymes and the substrate in white 384-well microplates (Corning) at ambient temperature for 1 h. ATP was subsequently added to initiate the kinase reactions in 10 μL total volume, with 1% DMSO. […] Kinase reactions were allowed to proceed for 1 hour at ambient temperature before a 10 μL preparation of EDTA (10 mM final concentration) and Tb-anti-pSTAT1 ([…]) antibody (Life Technologies, 2 nM final concentration) in TR-FRET dilution buffer (Life Technologies) was added. The plates were allowed to incubate at ambient temperature for 1 h before being read on the EnVision reader (Perkin Elmer). Emission ratio signals (520 nm/495 nm) were recorded and utilized to calculate the percent inhibition values based on DMSO and background controls. For dose-response analysis, percent inhibition data were plotted vs. compound concentrations, and IC50 values were determined from a 4-parameter robust fit model with the Prism software (GraphPad Software). Results were expressed as pIC50 (negative logarithm of IC50) and subsequently converted to pKi (negative logarithm of dissociation constant, Ki) using the Cheng-Prusoff equation.

[2] = molecular target: T2, JAK3 (Homo sapiens, UniProt P52333); experiment: Biochemical LanthaScreen JAK3 kinase assay; conditions: Km ATP 1.6 μM; pKi from pIC50 by Cheng-Prusoff; read-out: JAK 3 (pKi) (converted)
T2 construct: GST; purchased Life Technologies
T2 sequence (P52333 1-1124): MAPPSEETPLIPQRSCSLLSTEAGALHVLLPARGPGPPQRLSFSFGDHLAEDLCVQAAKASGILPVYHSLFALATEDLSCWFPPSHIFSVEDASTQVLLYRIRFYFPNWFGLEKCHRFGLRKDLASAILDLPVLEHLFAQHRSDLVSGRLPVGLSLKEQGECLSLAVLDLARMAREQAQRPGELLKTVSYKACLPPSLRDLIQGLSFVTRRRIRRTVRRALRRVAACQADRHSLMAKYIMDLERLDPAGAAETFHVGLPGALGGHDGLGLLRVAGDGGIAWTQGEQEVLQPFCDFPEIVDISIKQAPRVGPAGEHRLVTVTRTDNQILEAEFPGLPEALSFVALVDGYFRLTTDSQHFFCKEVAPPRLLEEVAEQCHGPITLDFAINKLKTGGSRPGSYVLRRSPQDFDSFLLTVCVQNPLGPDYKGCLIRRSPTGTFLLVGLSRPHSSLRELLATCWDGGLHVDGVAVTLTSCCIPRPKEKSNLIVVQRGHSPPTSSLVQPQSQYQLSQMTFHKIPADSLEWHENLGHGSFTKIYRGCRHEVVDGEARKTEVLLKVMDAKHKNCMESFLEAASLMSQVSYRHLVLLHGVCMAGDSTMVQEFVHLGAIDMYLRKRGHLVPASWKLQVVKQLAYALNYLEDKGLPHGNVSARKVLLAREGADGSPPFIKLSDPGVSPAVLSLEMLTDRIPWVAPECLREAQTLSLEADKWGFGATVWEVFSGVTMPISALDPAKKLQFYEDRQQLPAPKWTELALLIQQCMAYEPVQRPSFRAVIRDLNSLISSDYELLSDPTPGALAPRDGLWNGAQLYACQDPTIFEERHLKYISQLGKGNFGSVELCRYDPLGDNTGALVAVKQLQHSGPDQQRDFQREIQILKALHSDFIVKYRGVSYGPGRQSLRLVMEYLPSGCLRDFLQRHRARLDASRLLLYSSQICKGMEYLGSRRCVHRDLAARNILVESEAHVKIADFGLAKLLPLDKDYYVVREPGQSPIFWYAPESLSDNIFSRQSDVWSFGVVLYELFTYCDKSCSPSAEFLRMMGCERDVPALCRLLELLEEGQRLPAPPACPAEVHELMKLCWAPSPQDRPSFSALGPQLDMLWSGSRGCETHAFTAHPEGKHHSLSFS
Method: as §1

[3] = physchem; format: physicochemical; conditions: thermodynamic from solid
Method: Assay 5: Solubility Assay in Organic Excipients The purpose of this assay was to quantify the solubility of test compounds in different organic excipients such as diisopropyl adipate, medium chain triglycerides (MCT), propylene glycol, and polyethylene glycol. The assay required 80 μL of 100 mM DMSO test compound solution per desired excipient in addition to 40 μL required to make a test standard. For example, to test a compound in all five […]) of 100 mM DMSO compound stock solution was required. The standard was created by diluting 40 μL of 100 mM DMSO compound stock solution into 160 μL of methanol and was shaken for five minutes to ensure solution uniformity. […] This 20,000 μM solution was run on an Agilent 1260 LC-MS system by injecting 0.2 μL in order to obtain the peak area. For the test solutions, 80 μL of 100 mM DMSO compound stock solution, per excipient, were dried down into a powder overnight. Once in powder form, 400 μL of the desired excipient was added to the powder and allowed to shake vigorously for four hours. The maximum theoretical concentration for this sample solution was 20,000 μM. After four hours of shaking, the samples were centrifuged for 10 minutes at 3,000 RPM before injecting 0.2 μL on the same Agilent 1260 LC-MS system to obtain the peak area. […] In Table 3 below, A represents a value above 10, B represents a value between 5 and 10, C represents a value below 5.

[4] = oil or lipid, Solubility in MCT
[5] = organic solvent or mixture, Solubility in Diisopropyl adipate
[6] = organic solvent or mixture, Solubility in PEG400
[7] = organic solvent or mixture, Solubility in Propylene glycol
[8] = organic solvent or mixture, Solubility in Transcutol

T1 sequence (P23458 whole entry): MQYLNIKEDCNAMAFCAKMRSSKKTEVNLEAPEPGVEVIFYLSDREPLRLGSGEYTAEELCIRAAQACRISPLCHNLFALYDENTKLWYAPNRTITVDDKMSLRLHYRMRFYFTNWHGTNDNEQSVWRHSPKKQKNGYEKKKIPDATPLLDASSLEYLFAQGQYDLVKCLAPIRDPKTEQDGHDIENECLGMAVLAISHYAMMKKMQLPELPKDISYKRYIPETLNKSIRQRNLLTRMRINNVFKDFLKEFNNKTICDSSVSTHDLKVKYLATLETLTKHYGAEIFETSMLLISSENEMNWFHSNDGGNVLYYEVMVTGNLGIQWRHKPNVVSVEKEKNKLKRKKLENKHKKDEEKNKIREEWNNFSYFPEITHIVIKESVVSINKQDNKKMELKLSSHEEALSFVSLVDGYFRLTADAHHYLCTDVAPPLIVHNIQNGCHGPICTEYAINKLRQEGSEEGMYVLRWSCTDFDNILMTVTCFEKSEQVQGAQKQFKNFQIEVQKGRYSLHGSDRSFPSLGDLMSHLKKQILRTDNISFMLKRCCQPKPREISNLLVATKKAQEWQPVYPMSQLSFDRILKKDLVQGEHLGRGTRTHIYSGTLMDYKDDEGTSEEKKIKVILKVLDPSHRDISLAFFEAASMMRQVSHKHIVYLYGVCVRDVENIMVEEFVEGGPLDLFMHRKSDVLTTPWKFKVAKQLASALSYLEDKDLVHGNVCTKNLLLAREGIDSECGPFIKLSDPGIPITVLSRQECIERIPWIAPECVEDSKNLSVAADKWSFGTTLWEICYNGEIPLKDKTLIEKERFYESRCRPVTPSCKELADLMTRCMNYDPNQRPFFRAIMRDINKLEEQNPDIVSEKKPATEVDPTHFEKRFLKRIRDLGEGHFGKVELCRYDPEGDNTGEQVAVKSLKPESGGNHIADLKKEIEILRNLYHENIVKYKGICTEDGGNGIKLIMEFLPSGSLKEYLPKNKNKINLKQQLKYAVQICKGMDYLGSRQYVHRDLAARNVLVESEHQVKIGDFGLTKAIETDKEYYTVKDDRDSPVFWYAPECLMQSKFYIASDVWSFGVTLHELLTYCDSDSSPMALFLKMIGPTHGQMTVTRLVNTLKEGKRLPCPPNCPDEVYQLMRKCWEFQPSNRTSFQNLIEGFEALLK

For `CCS(=O)(=O)N1[C@@H]2CCC[C@H]1C[C@H](N(C)c1nc(COC(=O)OC3CCCCC3)c(F)c(Nc3cc(C)[nH]n3)n1)C2` [Compound 6, cyclohexyl ((2-(((1R,3s,5S)-9-(ethylsulfonyl)-9-azabicyclo[3.3.1]nonan-3-yl)(methyl)amino)-5-fluoro-6-((5-methyl-1H-pyrazol-3-yl)amino)pyrimidin-4-yl)methyl) carbonate], the Ki [1] was 1 to 10 nM, the Ki [2] was 10 to 100 nM and the solubility at 4 h [3, 4] was less than 5000 µg/mL. It also gave a solubility at 4 h [3, 5] greater than 10000 µg/mL, a solubility at 4 h [3, 6] of 5000 to 10000 µg/mL (≈ 8.42 to 16.8 mM) and a solubility at 4 h [3, 7] of 5000 to 10000 µg/mL (≈ 8.42 to 16.8 mM). The solubility at 4 h [3, 8] was greater than 10000 µg/mL.

In the case of `CCS(=O)(=O)N1[C@@H]2CCC[C@H]1C[C@H](N(C)c1nc(COC(C)=O)c(F)c(Nc3cc(C)[nH]n3)n1)C2` [Compound 1, (2-(((1R,3s,5S)-9-(ethylsulfonyl)-9-azabicyclo[3.3.1]nonan-3-yl)(methyl)amino)-5-fluoro-6-((5-methyl-1H-pyrazol-3-yl)amino)pyrimidin-4-yl)methyl acetate], the Ki [1] is reported as 0.1 to 1 nM, the Ki [2] is reported as 0.1 to 1 nM and the solubility at 4 h [3, 4] is reported as less than 5000 µg/mL. The solubility at 4 h [3, 5] was greater than 10000 µg/mL, the solubility at 4 h [3, 6] was 5000 to 10000 µg/mL and the solubility at 4 h [3, 7] was greater than 10000 µg/mL. The solubility at 4 h [3, 8] was greater than 10000 µg/mL.

`CCC(=O)OCc1nc(N(C)[C@@H]2C[C@H]3CCC[C@@H](C2)N3S(=O)(=O)CC)nc(Nc2cc(C)[nH]n2)c1F` [Compound 2, (2-(((1R,3s,5S)-9-(ethylsulfonyl)-9-azabicyclo[3.3.1]nonan-3-yl)(methyl)amino)-5-fluoro-6-((5-methyl-1H-pyrazol-3-yl)amino)pyrimidin-4-yl)methyl propionate] gave a Ki [1] of 0.1 to 1 nM, a Ki [2] of 0.1 to 1 nM and a solubility at 4 h [3, 4] of less than 5000 µg/mL. The solubility at 4 h [3, 5] was greater than 10000 µg/mL, the solubility at 4 h [3, 6] was greater than 10000 µg/mL and the solubility at 4 h [3, 7] was greater than 10000 µg/mL. For the same molecule, the solubility at 4 h [3, 8] was greater than 10000 µg/mL.

Work on `CCCCCCC(=O)OCc1nc(N(C)[C@@H]2C[C@H]3CCC[C@@H](C2)N3S(=O)(=O)CC)nc(Nc2cc(C)[nH]n2)c1F` [Compound 5, (2-(((1R,3s,5S)-9-(ethylsulfonyl)-9-azabicyclo[3.3.1]nonan-3-yl)(methyl)amino)-5-fluoro-6-((5-methyl-1H-pyrazol-3-yl)amino)pyrimidin-4-yl)methyl heptanoate] yielded a Ki [1] of 1 to 10 nM, a Ki [2] of 10 to 100 nM and a solubility at 4 h [3, 4] of less than 5000 µg/mL. It also gave a solubility at 4 h [3, 5] greater than 10000 µg/mL, a solubility at 4 h [3, 6] greater than 10000 µg/mL and a solubility at 4 h [3, 7] of 5000 to 10000 µg/mL (≈ 8.62 to 17.2 mM). For the same molecule, the solubility at 4 h [3, 8] was greater than 10000 µg/mL.

In the case of `CCCCC(=O)OCc1nc(N(C)[C@@H]2C[C@H]3CCC[C@@H](C2)N3S(=O)(=O)CC)nc(Nc2cc(C)[nH]n2)c1F` [Compound 4, (2-(((1R,3s,5S)-9-(ethylsulfonyl)-9-azabicyclo[3.3.1]nonan-3-yl)(methyl)amino)-5-fluoro-6-((5-methyl-1H-pyrazol-3-yl)amino)pyrimidin-4-yl)methyl pentanoate], the Ki [1] is reported as 0.1 to 1 nM, the Ki [2] is reported as 1 to 10 nM and the solubility at 4 h [3, 4] is reported as less than 5000 µg/mL. It also gave a solubility at 4 h [3, 5] greater than 10000 µg/mL, a solubility at 4 h [3, 6] greater than 10000 µg/mL and a solubility at 4 h [3, 7] of less than 5000 µg/mL. It also gave a solubility at 4 h [3, 8] greater than 10000 µg/mL.

`CCS(=O)(=O)N1[C@@H]2CCC[C@H]1C[C@H](N(C)c1nc(CO)c(F)c(Nc3cc(C)[nH]n3)n1)C2` [Compound M, (2-(((1R,3s,5S)-9-(ethylsulfonyl)-9-azabicyclo[3.3.1]nonan-3-yl)(methyl)amino)-5-fluoro-6-((5-methyl-1H-pyrazol-3-yl)amino)pyrimidin-4-yl)methanol] showed a Ki [1] of no more than 0.1 nM, a Ki [2] of 0.1 to 1 nM and a solubility at 4 h [3, 4] of less than 5000 µg/mL. For the same molecule, the solubility at 4 h [3, 5] was less than 5000 µg/mL, the solubility at 4 h [3, 6] was less than 5000 µg/mL and the solubility at 4 h [3, 7] was less than 5000 µg/mL. The solubility at 4 h [3, 8] was greater than 10000 µg/mL.

In the case of `CCCC(=O)OCc1nc(N(C)[C@@H]2C[C@H]3CCC[C@@H](C2)N3S(=O)(=O)CC)nc(Nc2cc(C)[nH]n2)c1F` [Compound 3, (2-(((1R,3s,5S)-9-(ethylsulfonyl)-9-azabicyclo[3.3.1]nonan-3-yl)(methyl)amino)-5-fluoro-6-((5-methyl-1H-pyrazol-3-yl)amino)pyrimidin-4-yl)methyl butyrate], the Ki [1] is reported as 0.1 to 1 nM, the Ki [2] is reported as 1 to 10 nM and the solubility at 4 h [3, 4] is reported as less than 5000 µg/mL. The solubility at 4 h [3, 5] was greater than 10000 µg/mL, the solubility at 4 h [3, 6] was greater than 10000 µg/mL and the solubility at 4 h [3, 7] was greater than 10000 µg/mL. For the same molecule, the solubility at 4 h [3, 8] was greater than 10000 µg/mL.

With `CCS(=O)(=O)N1[C@@H]2CCC[C@H]1C[C@H](N(C)c1nc(COC(=O)C3CCOCC3)c(F)c(Nc3cc(C)[nH]n3)n1)C2` [Compound 7, (2-(((1R,3s,5S)-9-(ethylsulfonyl)-9-azabicyclo[3.3.1]nonan-3-yl)(methyl)amino)-5-fluoro-6-((5-methyl-1H-pyrazol-3-yl)amino)pyrimidin-4-yl)methyl tetrahydro-2H-pyran-4-carboxylate] the Ki [1] was 0.1 to 1 nM, the Ki [2] was 0.1 to 1 nM and the solubility at 4 h [3, 4] was less than 5000 µg/mL. For the same molecule, the solubility at 4 h [3, 5] was greater than 10000 µg/mL, the solubility at 4 h [3, 6] was greater than 10000 µg/mL and the solubility at 4 h [3, 7] was greater than 10000 µg/mL.

In the case of `CCS(=O)(=O)N1[C@@H]2CCC[C@H]1C[C@H](N(C)c1nc(COC(=O)OC3CCOCC3)c(F)c(Nc3cc(C)[nH]n3)n1)C2` [Compound 9, (2-(((1R,3s,5S)-9-(ethylsulfonyl)-9-azabicyclo[3.3.1]nonan-3-yl)(methyl)amino)-5-fluoro-6-((5-methyl-1H-pyrazol-3-yl)amino)pyrimidin-4-yl)methyl (tetrahydro-2H-pyran-4-yl) carbonate], the Ki [1] is reported as 0.1 to 1 nM, the Ki [2] is reported as 1 to 10 nM and the solubility at 4 h [3, 4] is reported as less than 5000 µg/mL. It also gave a solubility at 4 h [3, 5] greater than 10000 µg/mL, a solubility at 4 h [3, 6] greater than 10000 µg/mL and a solubility at 4 h [3, 7] greater than 10000 µg/mL.

In the case of `CCS(=O)(=O)N1[C@@H]2CCC[C@H]1C[C@H](N(C)c1nc(COC(=O)OC(C)C)c(F)c(Nc3cc(C)[nH]n3)n1)C2` [Compound 8, (2-(((1R,3s,5S)-9-(ethylsulfonyl)-9-azabicyclo[3.3.1]nonan-3-yl)(methyl)amino)-5-fluoro-6-((5-methyl-1H-pyrazol-3-yl)amino)pyrimidin-4-yl)methyl isopropyl carbonate], the Ki [1] is reported as 0.1 to 1 nM, the Ki [2] is reported as 1 to 10 nM and the solubility at 4 h [3, 4] is reported as less than 5000 µg/mL. The solubility at 4 h [3, 5] was greater than 10000 µg/mL, the solubility at 4 h [3, 6] was greater than 10000 µg/mL and the solubility at 4 h [3, 7] was less than 5000 µg/mL.
